*1 amine or outer side, *2 acyl side, *3 side chain or, on linkers, in order; H or OH if unused. Where a SMILES comes first, the peptide text is derived from it. [ ]: non-standard residue; d: D form. The star is where a group is joined. Dolaproine = CO[C@@H]([C@@H]1CCCN1)[C@@H](C)C(=O)O; X15 = C[C@H](COC(=O)*)SSc1ccc([N+](=O)[O-])cn1; Dil = CC[C@H](C)[C@H](NC)[C@@H](CC(=O)O)OC; PABC = O=C(OCc1ccc(N[*:1])cc1)[*:2]; X2 = C[C@@H](N*)[C@@H](O)c1ccccc1; NMeV = CN[C@H](C(=O)O)C(C)C
Columns and labels:
[1] = pKa of thiol compounds
[2] = tested on: calf DNA; assay: DNA binding potential (incubation with calf DNA, extraction, LC/MS); conditions: 1 mg/mL calf DNA, 37° C., 1 hour
Protocol: For DNA binding analysis, compounds 7 and 8 were incubated at […] with 1 mg/mL calf DNA for 1 hour in 0.5 mL of 10 mM Bis-Tris, pH 7.1 at 37° C. Ethyl acetate (1 mL) was used to extract the reaction mixture twice by vortex (20 seconds) and centrifugation (4 min at 5,000×g). The combined organic extracts were concentrated under vacuum and reconstituted in 0.15 mL of 1:1 water/methanol before injection on LC/MS. The samples were analyzed by LC/MS/UV on Sciex TripleTOF 5600 on a Hypersil Gold C18 column (100×2.1, […], Thermo Scientific) in a positive ESI ion mode. The column was eluted by a gradient of buffer A (0.1% formic acid) to buffer B (0.1% formic acid in acetonitrile), 5% B 0-0.5 min, 5-25% B 0.5-8 min, 25-75% B 8-13 min, and 75-95% B 13-13.5 min, 95% B 13.5-14.5 min, 95-5% B 14.5-15 min at 0.4 mL/min.

[3] = In vitro disulfide cleavage and immolation by incubation with cysteine or glutathione (LC/MS); assay type: physicochemical; conditions: for Percentage of all products: pH 7.0, 37° C.
Protocol: In a first phase of the experiment, disulfide cleavage and immolation by incubation with cysteine and glutathione—with the thiol concentrations mimic those in plasma and cancer cells—was investigated using unconjugated small molecule model systems with para-nitro-pyridyl disulfide-containing linker drug analogs 1, 2 and 11 below. In particular, cleavage and immolation was evaluated in vitro by incubation at […] with cysteine ([…] or 200 μM) or glutathione (GSH, 4 mM) in 100 mM Tris buffer pH 7.0 containing 5% methanol at 37° C. Aliquots were taken at specified time points and the samples were analyzed by LC/MS on Sciex TripleTOF 5600 on a Hypersil Gold C18 column (100×2.1, […], Thermo Scientific). The column was eluted by a gradient of buffer A (0.1% formic acid in 10 mM ammonium acetate) to buffer B (0.1% formic acid in 10 mM ammonium acetate in 90% acetonitrile), 5% B 0-0.5 min, 5-25% B 0.5-8 min, 25-75% B 8-13 min, and 75-95% B 13-13.5 min, 95% B 13.5-14.5 min, 95-5% B 14.5-15 min at 0.4 mL/min. Under these conditions, para-nitropyridyl thiol was eluted at 5.3 min. All products (compounds 1, 2, 11, 3a, 3b, 4a, 4b, 12a, 12 b, 6, 7, 13 and 8) were separated and characterized by LC/MS/MS in a positive ESI ion mode. All analytes had the protonated molecular MH^+ as the major species with little source fragmentation. Full scan accurate mass peak areas were used to estimate relative abundance of each component and the disappearance of 1, 2, and 11 estimated relative full scan peak areas was consistent with that estimated based on the relative abundance compared to time 0 by MS or UV. The results are reported in Table 15 below and the analytical results are presented in Table 16 below where “Cmpd” refers to compound, “RT” refers to retention time in minutes, and “Calc. Mass” refers to calculated mass. The relative abundance of disulfide cleavage and immolation products over time were evaluated and are disclosed in FIGS. 12A to 12C, 13A to 13C, 14A to 14C and 15A to 15C where the products were monitored by LC/MS from incubations of linker drugs 1, 2, and 11 at pH 7.0 and 37° C. in the presence of: 0.2 mM cysteine (FIGS. 12A, 12B and 12C); 0.03 mM cysteine (FIGS. 13A, 13B and 13C); 4 mM glutathione (FIGS. 14A, 14B and 14C); and 0.03 mM glutathione (FIGS. 15A, 15B and 15C). In FIGS. 12A to 12C, 13A to 13C, 14A to 14C and 15A to 15C, compound reference numbers 1, 2, 3a, 3b, 4a, 4b, 6, 7, 8, 11, 12a, 12b and 13 correspond to the structures below.

[4] = tested on: target-expressing cell lines; conditions: target-expressing cell lines (Hartley 2011); cited from earlier work
[5] = tested on: SK-BR-3 cells; assay: In vitro IC50 of MMAE ADCs, Cell Titer-Glo, SK-BR-3; assay type: cell-based; conditions: 5 days
Protocol: (§1) The in vitro IC50 of ADC compounds MMAE 1, MMAE 2, MMAE 5 and MMAE 6 against SK-BR-3 and KPL-4 cells was evaluated. The cells were plated in 96-well plates (SK-BR-3 at 5000 cell per well; KPL-4 at 1500 cells […]) in cysteine free RPMI+10% FBS+20 mM glutamine+50 pM cysteine media and allowed to adhere overnight. Media was then removed and was replaced with fresh media containing different ADC concentrations. Cell viability was measured 5 days after drug administration using Cell Titer-Glo.

[6] = tested on: KPL-4 cells; assay: In vitro IC50 of MMAE ADCs, Cell Titer-Glo, KPL-4; assay type: cell-based; conditions: 5 days
Protocol: as §1

| SMILES | pKa [1] | DNA binding [2] | Percentage of all products ([3]; 30 μM cysteine, 1 h) [%] | Percentage of all products ([3]; 30 μM cysteine, 4 h) [%] | Percentage of all products ([3]; 30 μM cysteine, 24 h) [%] | Percentage of all products ([3]; 200 μM cysteine, 1 h) [%] | Percentage of all products ([3]; 200 μM cysteine, 4 h) [%] | Percentage of all products ([3]; 200 μM cysteine, 24 h) [%] | Percentage of all products ([3]; 4 mM GSH, 1 h) [%] | Percentage of all products ([3]; 4 mM GSH, 4 h) [%] | Percentage of all products ([3]; 4 mM GSH, 24 h) [%] | Immolation of thiol intermediate ([3]; incubation with cysteine or glutathione) | Fraction unextractable after incubation in DNA solution [2] | IC50 [4] [nM] | SK-BR-3 IC50 [5] [µg/mL] | KPL-4 IC50 [6] [µg/mL] |
| --- | --- | --- | --- | --- | --- | --- | --- | --- | --- | --- | --- | --- | --- | --- | --- | --- |
| C=C1C[C@H]2C=Nc3cc(OCCCCCOc4cc5c(cc4OC)C(=O)N4CC(=C)C[C@H]4[C@H](O)N5C(=O)OCC4(S)CC4)c(OC)cc3C(=O)N2C1 [Compound 7] | 4.7 to 4.8 | does not bind to DNA | 5.1 | 9.7 | 11.6 | 44.7 | 73.6 | 87.3 | 80.8 | 89.7 | 92.3 | did not appreciably immolate and appeared to be stable | – | – | – | – |
| C=C1C[C@H]2C=Nc3cc(OCCCCCOc4cc5c(cc4OC)C(=O)N4CC(=C)C[C@H]4C=N5)c(OC)cc3C(=O)N2C1 [Compound 8] | – | quickly binds to DNA | – | – | – | – | – | – | – | – | – | – | approximately 94% | ~0.05 | – | – |
| CC[C@H](C)[C@@H]([C@@H](CC(=O)N1CCC[C@H]1[C@H](OC)[C@@H](C)C(=O)N[C@H](C)[C@@H](O)c1ccccc1)OC)N(C)C(=O)[C@@H](NC(=O)[C@H](C(C)C)N(C)C(=O)OCc1ccc(NC(=O)OC[C@@H](C)SSc2ccc([N+](=O)[O-])cn2)cc1)C(C)C [MMAE 6] ({X15-PABC}-[NMeV]V[Dil][Dolaproine]-X2) | – | – | – | – | – | – | – | – | – | – | – | – | – | – | 0.78 | 0.411 |

Source: US10729738B2, “Hindered disulfide drug conjugates” (priority 2015, dated 2020)
